Assays:
Type in all cases: functional
[1] = tested on: A549; experiment: Cytotoxicity against human A549 cells
[2] = tested on: EKVX; experiment: Cytotoxicity against human EKVX cells
[3] = tested on: NCI-H226; experiment: Cytotoxicity against human NCI-H226 cells
[4] = tested on: HCT-116; experiment: Cytotoxicity against human HCT116 cells
[5] = tested on: KM12; experiment: Cytotoxicity against human KM12 cells
[6] = tested on: SF-539; experiment: Cytotoxicity against human SF539 cells
[7] = tested on: U-251; experiment: Cytotoxicity against human U251 cells
[8] = tested on: UACC-257; experiment: Cytotoxicity against human UACC257 cells
[9] = tested on: UACC-62; experiment: Cytotoxicity against human UACC62 cells
[10] = tested on: A498; experiment: Cytotoxicity against human A498 cells
[11] = tested on: ACHN; experiment: Cytotoxicity against human ACHN cells
[12] = tested on: RXF 393; experiment: Cytotoxicity against human RXF393 cells
[13] = tested on: SN12C; experiment: Cytotoxicity against human SN12C cells
[14] = tested on: MCF7; experiment: Cytotoxicity against human MCF7 cells
[15] = Cytotoxicity against human Hs 578T cells
[16] = read-out: pLC50 (the source's name) (converted)

`C#C[C@H](O)/C=C/CCCCCCCCCC/C=C\CCCCCCC[C@H](O)C#CC#CC#CCO` [TRIANGULYNE A] gave a GI50 [1] of 0.339 µM, a CC50 [1, 16] of 47.9 µM and a TGI ([1]; read-out: pTGI (converted)) of 5.75 µM. For the same molecule, the GI50 [2] was 0.871 µM, the CC50 [2, 16] was 6.76 µM and the TGI ([2]; read-out: pTGI (converted)) was 2.4 µM. It also gave a GI50 [3] of 0.603 µM, a CC50 [3, 16] of 8.13 µM and a TGI ([3]; read-out: pTGI (converted)) of 1.91 µM. It also gave a GI50 [4] of 0.129 µM, an LC50 [4] of 3.47 µM and a TGI ([4]; read-out: pTGI (converted)) of 0.661 µM. It also gave a GI50 [5] of 0.17 µM, an LC50 [5] of 1.1 µM and a TGI ([5]; read-out: pTGI (converted)) of 0.38 µM. It also gave a GI50 [6] of 1.1 µM, a CC50 [6, 16] of 19.1 µM and a TGI ([6]; read-out: pTGI (converted)) of 3.31 µM. For the same molecule, the GI50 [7] was 0.813 µM, the CC50 [7, 16] was 5.25 µM and the TGI ([7]; read-out: pTGI (converted)) was 2.19 µM. The GI50 [8] was 0.513 µM, the CC50 [8, 16] was 8.13 µM and the TGI ([8]; read-out: pTGI (converted)) was 2.09 µM. For the same molecule, the GI50 [9] was 0.229 µM, the CC50 [9, 16] was 9.12 µM and the TGI ([9]; read-out: pTGI (converted)) was 0.646 µM. It also gave a GI50 [10] of 0.525 µM, a CC50 [10, 16] of 5.25 µM and a TGI ([10]; read-out: pTGI (converted)) of 1.58 µM. It also gave a GI50 [11] of 0.776 µM, a CC50 [11, 16] of 32.4 µM and a TGI ([11]; read-out: pTGI (converted)) of 7.24 µM. The GI50 [12] was 0.339 µM, the CC50 [12, 16] was 18.2 µM and the TGI ([12]; read-out: pTGI (converted)) was 1.29 µM. It also gave a GI50 [13] of 1.41 µM, a CC50 [13, 16] of 32.4 µM and a TGI ([13]; read-out: pTGI (converted)) of 11 µM. The GI50 [14] was 1.58 µM, the CC50 [14, 16] was 25.7 µM and the TGI ([14]; read-out: pTGI (converted)) was 6.03 µM. The GI50 [15] was 2.4 µM, the CC50 [15, 16] was 57.5 µM and the TGI ([15]; read-out: pTGI (converted)) was 8.32 µM.

Reference: ChEMBL document CHEMBL1158270, “Triangulynes A-H and trangulynic acid, new cytotxic polyacetylenes from the marine sponge Pellina triangulata” (1996)
